# Results taken from BindingDB's records for patent US9539260 (Novartis AG, 2017).
# Legend:
# [1] = target: Phosphatidylinositol 4,5-bisphosphate 3-kinase catalytic subunit alpha isoform (Homo sapiens, UniProt P42336); experiment: Inhibition Assay; conditions: 25 °C
# Protocol: (§1) The final concentrations of ATP and phosphatidyl inositol in the assay are 5 μM and 6 μg/mL, respectively. […] The final concentrations of ATP and phosphatidyl inositol (PI) in the assay are 1 μM and 10 μg/mL, respectively.
# [2] = target: T1, Phosphatidylinositol 4,5-bisphosphate 3-kinase catalytic subunit delta isoform (Homo sapiens, UniProt O00329); experiment: Inhibition Assay; conditions: 25 °C
# T1 sequence (O00329 whole entry): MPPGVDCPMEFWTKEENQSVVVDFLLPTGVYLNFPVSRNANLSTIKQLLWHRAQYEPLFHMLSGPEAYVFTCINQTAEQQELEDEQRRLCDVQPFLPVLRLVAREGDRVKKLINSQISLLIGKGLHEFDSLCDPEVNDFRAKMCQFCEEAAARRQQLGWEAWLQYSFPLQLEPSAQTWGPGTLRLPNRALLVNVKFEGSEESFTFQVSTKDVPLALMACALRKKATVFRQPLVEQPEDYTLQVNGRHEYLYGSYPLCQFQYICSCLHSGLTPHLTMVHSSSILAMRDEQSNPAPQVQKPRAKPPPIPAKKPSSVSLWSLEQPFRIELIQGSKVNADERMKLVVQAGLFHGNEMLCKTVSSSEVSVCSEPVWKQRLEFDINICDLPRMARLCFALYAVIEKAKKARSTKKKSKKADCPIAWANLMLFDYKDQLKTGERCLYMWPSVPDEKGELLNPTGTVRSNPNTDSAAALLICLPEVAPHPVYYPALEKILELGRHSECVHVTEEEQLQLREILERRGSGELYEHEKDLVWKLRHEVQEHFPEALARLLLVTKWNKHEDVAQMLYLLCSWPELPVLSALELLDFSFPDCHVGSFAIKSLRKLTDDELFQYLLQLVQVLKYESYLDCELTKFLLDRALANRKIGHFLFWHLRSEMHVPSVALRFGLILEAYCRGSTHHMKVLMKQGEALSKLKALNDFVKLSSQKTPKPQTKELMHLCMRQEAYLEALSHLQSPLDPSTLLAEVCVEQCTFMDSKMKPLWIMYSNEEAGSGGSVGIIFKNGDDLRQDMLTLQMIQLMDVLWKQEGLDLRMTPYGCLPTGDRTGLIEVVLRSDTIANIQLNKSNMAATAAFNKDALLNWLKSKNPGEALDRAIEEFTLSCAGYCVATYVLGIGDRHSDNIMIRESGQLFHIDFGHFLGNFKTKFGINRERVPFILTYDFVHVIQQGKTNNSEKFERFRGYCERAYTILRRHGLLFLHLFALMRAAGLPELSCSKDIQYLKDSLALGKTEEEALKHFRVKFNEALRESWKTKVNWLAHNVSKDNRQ
# Protocol: as §1
# Sequence of Phosphatidylinositol 4,5-bisphosphate 3-kinase catalytic subunit alpha isoform (P42336 whole entry, canonical isoform): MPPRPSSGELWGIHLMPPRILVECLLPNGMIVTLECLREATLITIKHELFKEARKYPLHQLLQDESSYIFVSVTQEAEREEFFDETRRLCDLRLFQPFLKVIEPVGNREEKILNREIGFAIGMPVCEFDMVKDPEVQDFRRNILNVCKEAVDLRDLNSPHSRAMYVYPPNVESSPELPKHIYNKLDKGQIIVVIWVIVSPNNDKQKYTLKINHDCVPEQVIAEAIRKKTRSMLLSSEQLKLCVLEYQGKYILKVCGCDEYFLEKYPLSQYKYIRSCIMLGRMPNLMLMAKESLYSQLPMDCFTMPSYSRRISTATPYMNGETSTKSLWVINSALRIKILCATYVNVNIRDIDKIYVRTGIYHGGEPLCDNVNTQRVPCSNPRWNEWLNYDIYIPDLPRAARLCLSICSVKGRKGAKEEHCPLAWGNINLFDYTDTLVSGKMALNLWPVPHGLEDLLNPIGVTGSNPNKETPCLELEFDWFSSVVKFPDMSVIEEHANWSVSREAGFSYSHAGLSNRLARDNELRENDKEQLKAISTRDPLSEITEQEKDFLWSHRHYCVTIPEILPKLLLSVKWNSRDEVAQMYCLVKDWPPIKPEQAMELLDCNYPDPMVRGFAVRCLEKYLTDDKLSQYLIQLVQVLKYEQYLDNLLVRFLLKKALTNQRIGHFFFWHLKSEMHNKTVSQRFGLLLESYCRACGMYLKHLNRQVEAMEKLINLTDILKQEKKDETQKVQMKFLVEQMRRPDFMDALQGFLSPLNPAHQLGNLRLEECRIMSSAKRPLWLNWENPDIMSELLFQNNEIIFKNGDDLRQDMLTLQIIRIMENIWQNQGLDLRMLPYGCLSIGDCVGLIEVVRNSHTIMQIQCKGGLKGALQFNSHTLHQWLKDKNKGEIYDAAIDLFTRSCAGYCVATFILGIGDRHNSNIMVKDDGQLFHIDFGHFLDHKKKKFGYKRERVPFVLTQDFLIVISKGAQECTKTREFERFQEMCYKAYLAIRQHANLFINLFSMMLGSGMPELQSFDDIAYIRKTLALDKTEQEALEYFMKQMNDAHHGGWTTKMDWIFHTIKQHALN
smiles,measurement,setting,value
"COc1ncc(N2CCOc3ccc(O[C@H]4CCN(C(=O)C5COCCO5)C4)cc32)cc1F (some centres not stated) [US9539260, B115]",IC50,[1],468 nM
same,IC50,[2],23 nM
